In the supplement of paper PMC5908809:

What was measured:
[1] = system: normal NK cells expanded with K562-aAPC; experiment: drug sensitivity score (DSS) (DSS units); higher = more sensitive; extreme values may be limits of the assay; conditions: 72 h; IL-2 2.5 ng/mL
Protocol: (§1)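 Drug sensitivity and resistance testing on K562-aAPC-expanded normal NK cells: 5 concentrations (10-fold steps over a 10,000-fold range), 72 h at 37 °C, viability by CellTiter-Glo normalised to DMSO and benzethonium chloride controls; DSS from the fitted curve.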

[2] = system: normal NK cells expanded with K562-aAPC; experiment: percent inhibition of viability; higher = more inhibition; conditions: 72 h, IL-2 2.5 ng/mL
Protocol: as §1

[3] = system: normal primary NK cells, pool 2 (3 donors) (IL-2 2.5 ng/mL); experiment: drug sensitivity score (DSS) (DSS units); higher = more sensitive; extreme values may be limits of the assay; conditions: 72 h
NKL (IL-2 2.5 ng/mL) [4] = experiment: as above; conditions: 72 h
NK-92 (IL-2 2.5 ng/mL) [5] = experiment: as above; conditions: 72 h
[6] = system: normal primary NK cells, pool 3 (3 donors) (IL-2 2.5 ng/mL); experiment: as above; conditions: 72 h
YT (IL-2 2.5 ng/mL) [7] = experiment: as above; conditions: 72 h
NK-YS (IL-2 2.5 ng/mL) [8] = experiment: as above; conditions: 72 h
[9] = system: normal primary NK cells, pool 1 (3 donors) (IL-2 2.5 ng/mL); experiment: as above; conditions: 72 h
IMC-1 (IL-2 20 ng/mL) [10] = experiment: as above; conditions: 72 h
DERL-7 (IL-2 2.5 ng/mL) [11] = experiment: as above; conditions: 72 h
[12] = system: normal primary NK cells, pool 1 (3 donors), resting (IL-2 0 ng/mL); experiment: as above; conditions: 72 h
KHYG-1 (IL-2 2.5 ng/mL) [13] = experiment: as above; conditions: 72 h
KAI3 (IL-2 2.5 ng/mL) [14] = experiment: as above; conditions: 72 h
SNK-6 (IL-2 2.5 ng/mL) [15] = experiment: as above; conditions: 72 h
[16] = system: normal primary NK cells, pool 2 (3 donors) (IL-2 2.5 ng/mL); experiment: percent inhibition of viability; higher = more inhibition; conditions: 72 h
NKL (IL-2 2.5 ng/mL) [17] = experiment: as above; conditions: 72 h
NK-92 (IL-2 2.5 ng/mL) [18] = experiment: as above; conditions: 72 h
[19] = system: normal primary NK cells, pool 3 (3 donors) (IL-2 2.5 ng/mL); experiment: as above; conditions: 72 h
YT (IL-2 2.5 ng/mL) [20] = experiment: as above; conditions: 72 h
NK-YS (IL-2 2.5 ng/mL) [21] = experiment: as above; conditions: 72 h
[22] = system: normal primary NK cells, pool 1 (3 donors) (IL-2 2.5 ng/mL); experiment: as above; conditions: 72 h
IMC-1 (IL-2 20 ng/mL) [23] = experiment: as above; conditions: 72 h
DERL-7 (IL-2 2.5 ng/mL) [24] = experiment: as above; conditions: 72 h
[25] = system: normal primary NK cells, pool 1 (3 donors), resting (IL-2 0 ng/mL); experiment: as above; conditions: 72 h
KHYG-1 (IL-2 2.5 ng/mL) [26] = experiment: as above; conditions: 72 h
KAI3 (IL-2 2.5 ng/mL) [27] = experiment: as above; conditions: 72 h
SNK-6 (IL-2 2.5 ng/mL) [28] = experiment: as above; conditions: 72 h

CO[C@@]12[C@H](COC(N)=O)C3=C(C(=O)C(C)=C(N)C3=O)N1C[C@@H]1N[C@@H]12 [Mitomycin C] (max concentration tested 10000 nM)
Conditions	drug sensitivity score
DERL-7 (IL-2 2.5 ng/mL) [11]	0
IMC-1 (IL-2 20 ng/mL) [10]	6.29
KAI3 (IL-2 2.5 ng/mL) [14]	9.91
KHYG-1 (IL-2 2.5 ng/mL) [13]	16.3
NK-92 (IL-2 2.5 ng/mL) [5]	9.13
NK-YS (IL-2 2.5 ng/mL) [8]	17.2
NKL (IL-2 2.5 ng/mL) [4]	21.9
SNK-6 (IL-2 2.5 ng/mL) [15]	14.8
YT (IL-2 2.5 ng/mL) [7]	4.01
[1]	1.99
[3]	10.3
[6]	9.16
[9]	2.74
[12]	6.45

percent inhibition of viability [%]
Conditions	1 nM	10 nM	100 nM	1000 nM	10000 nM
DERL-7 (IL-2 2.5 ng/mL) [24]	-3.54	4.32	-0.35	-4.88	11.3
IMC-1 (IL-2 20 ng/mL) [23]	-2.35	2.42	2.75	5.66	98.4
KAI3 (IL-2 2.5 ng/mL) [27]	-6	1.39	6.47	42.2	90.1
KHYG-1 (IL-2 2.5 ng/mL) [26]	-11.3	-10.2	-3.76	90.6	106
NK-92 (IL-2 2.5 ng/mL) [18]	-6.49	-1.15	-5.66	25.2	96
NK-YS (IL-2 2.5 ng/mL) [21]	-3.94	-3.78	7.6	89.1	101
NKL (IL-2 2.5 ng/mL) [17]	-16.1	-7.78	25.9	99.1	99.9
SNK-6 (IL-2 2.5 ng/mL) [28]	8	-22.7	-15.3	85.5	90
YT (IL-2 2.5 ng/mL) [20]	-7.65	-5.91	-4.19	-0.39	73.2
[2]	-6.75	-6.89	-6.31	1.66	36.7
[16]	-2.16	4.57	8.07	44.3	91.9
[19]	-2.62	8.35	8.1	31.6	94.6
[22]	-7.25	13.3	6.96	7.9	35
[25]	3.33	21.6	12.1	19.2	72.1

CN(C)/N=N/c1[nH]cnc1C(N)=O [Dacarbazine] (max concentration tested 10000 nM)
Conditions	drug sensitivity score
DERL-7 (IL-2 2.5 ng/mL) [11]	0
IMC-1 (IL-2 20 ng/mL) [10]	0
KAI3 (IL-2 2.5 ng/mL) [14]	0
KHYG-1 (IL-2 2.5 ng/mL) [13]	1.97
NK-92 (IL-2 2.5 ng/mL) [5]	0
NK-YS (IL-2 2.5 ng/mL) [8]	2.15
NKL (IL-2 2.5 ng/mL) [4]	0
SNK-6 (IL-2 2.5 ng/mL) [15]	10.7
YT (IL-2 2.5 ng/mL) [7]	3.43
[1]	0
[3]	0
[6]	0
[9]	0
[12]	0

percent inhibition of viability [%]
Conditions	1 nM	10 nM	100 nM	1000 nM	10000 nM
DERL-7 (IL-2 2.5 ng/mL) [24]	-2.46	-7.71	-9.81	-6.85	-5.73
IMC-1 (IL-2 20 ng/mL) [23]	-2.15	-3.53	1.36	1.13	5.24
KAI3 (IL-2 2.5 ng/mL) [27]	-5.96	-7.58	-5.99	-9.63	10.8
KHYG-1 (IL-2 2.5 ng/mL) [26]	-1.18	-4.93	-1.85	0.07	39.6
NK-92 (IL-2 2.5 ng/mL) [18]	-11.1	-14.5	-3.48	-12.7	-1.95
NK-YS (IL-2 2.5 ng/mL) [21]	-2.92	-5.5	2.66	4.39	31.8
NKL (IL-2 2.5 ng/mL) [17]	-15.6	-10.8	-1.7	0.09	-2.93
SNK-6 (IL-2 2.5 ng/mL) [28]	16.4	16	31.9	30.4	22.6
YT (IL-2 2.5 ng/mL) [20]	-0.72	-1.38	3.7	1.57	59.6
[2]	-6.74	-2.31	-4.77	1.92	10.3
[16]	-10.3	-8.69	-2.46	-11.8	-2.6
[19]	-14.1	-10.7	-2.39	-8.2	3.49
[22]	1.02	-5.15	0.2	-11.5	-4.15
[25]	-7.07	-16.7	-8.98	-35.2	-22.9

Cc1ncc(-c2ccnc(Nc3ccc(S(C)(=O)=O)cc3)n2)n1C(C)C [AZD-5438] (max concentration tested 10000 nM)
Conditions	drug sensitivity score
DERL-7 (IL-2 2.5 ng/mL) [11]	10
IMC-1 (IL-2 20 ng/mL) [10]	10.5
KAI3 (IL-2 2.5 ng/mL) [14]	11
KHYG-1 (IL-2 2.5 ng/mL) [13]	11.3
NK-92 (IL-2 2.5 ng/mL) [5]	5.86
NK-YS (IL-2 2.5 ng/mL) [8]	12.6
NKL (IL-2 2.5 ng/mL) [4]	6.34
SNK-6 (IL-2 2.5 ng/mL) [15]	3.04
YT (IL-2 2.5 ng/mL) [7]	9.28
[1]	6.5
[3]	7.94
[6]	8.5
[9]	7.3
[12]	3.02

percent inhibition of viability [%]
Conditions	1 nM	10 nM	100 nM	1000 nM	10000 nM
DERL-7 (IL-2 2.5 ng/mL) [24]	-5.59	2.74	-9.82	31.4	100
IMC-1 (IL-2 20 ng/mL) [23]	-2.44	-0.85	6.12	39.1	101
KAI3 (IL-2 2.5 ng/mL) [27]	-3.46	-9.8	-5.74	41.5	102
KHYG-1 (IL-2 2.5 ng/mL) [26]	0.77	0.77	0.38	45.4	105
NK-92 (IL-2 2.5 ng/mL) [18]	-5.15	-8.65	-22.7	-0.77	104
NK-YS (IL-2 2.5 ng/mL) [21]	-2.69	-3.59	1.96	59.8	103
NKL (IL-2 2.5 ng/mL) [17]	-7.07	-5.93	-18.1	3.89	103
SNK-6 (IL-2 2.5 ng/mL) [28]	-9.66	-5.34	6.52	-1.33	58.4
YT (IL-2 2.5 ng/mL) [20]	-1.56	-0.25	0.72	24	105
[2]	0.15	-0.53	-5.24	6.05	101
[16]	-12.1	-8.8	-8.52	15.6	96.9
[19]	-7.04	-10.4	1.54	18.4	99.4
[22]	-7.21	-12.4	-17.5	11.4	98
[25]	4.17	-8.18	-42.6	-99.9	91.4

CC[C@H](CO)Nc1nc(NCc2ccccc2)c2ncn(C(C)C)c2n1 [Seliciclib] (max concentration tested 10000 nM)
Conditions	drug sensitivity score
DERL-7 (IL-2 2.5 ng/mL) [11]	1.62
IMC-1 (IL-2 20 ng/mL) [10]	0.28
KAI3 (IL-2 2.5 ng/mL) [14]	4.72
KHYG-1 (IL-2 2.5 ng/mL) [13]	0.62
NK-92 (IL-2 2.5 ng/mL) [5]	4.81
NK-YS (IL-2 2.5 ng/mL) [8]	3.07
NKL (IL-2 2.5 ng/mL) [4]	3.69
SNK-6 (IL-2 2.5 ng/mL) [15]	0.43
YT (IL-2 2.5 ng/mL) [7]	4.39
[1]	1.71
[3]	1.7
[6]	0.41
[9]	2.2
[12]	2.43

percent inhibition of viability [%]
Conditions	1 nM	10 nM	100 nM	1000 nM	10000 nM
DERL-7 (IL-2 2.5 ng/mL) [24]	-1.96	7.05	6.82	0.8	33.1
IMC-1 (IL-2 20 ng/mL) [23]	-6.54	-8.7	-1.13	2.41	13.2
KAI3 (IL-2 2.5 ng/mL) [27]	-1.01	-9.53	-1.56	6.38	67.1
KHYG-1 (IL-2 2.5 ng/mL) [26]	4.31	-8.69	-4.34	1.22	18.6
NK-92 (IL-2 2.5 ng/mL) [18]	-2.72	-1.58	-0.03	23.2	39.9
NK-YS (IL-2 2.5 ng/mL) [21]	8.26	-2	-1.62	7.11	38.7
NKL (IL-2 2.5 ng/mL) [17]	-8.83	-15.7	-16.8	10.3	41.6
SNK-6 (IL-2 2.5 ng/mL) [28]	-14.8	-13.5	-3.42	-23.2	23.9
YT (IL-2 2.5 ng/mL) [20]	2.72	-5.9	-1.61	9.31	53.2
[2]	-5.19	-1.17	-5.63	3.89	27.1
[16]	-12.7	-4.83	5.97	1.18	33.5
[19]	0.36	1.61	11.3	-0.47	17.9
[22]	-1.6	-3.91	11.5	8.66	32.8
[25]	-1.46	-6.05	15.1	7.69	9.97
